Measured values published in US10131652B2, “Pyrimidinyloxy benzene derivatives as herbicides” (E. I. DU PONT DE NEMOURS AND COMPANY, priority 2014, dated 2018).

How the values were obtained:
Test in all cases: Test F pre-/postemergence plant response
Type in all cases: in vivo
[1] = system: large (Lg) crabgrass (Digitaria sanguinalis); settings: Digitaria sanguinalis, pre-emergence, scale 0 to 100, read-out: Plant response rating, Crabgrass, Large
Excerpt: (§1) Seeds of plant species selected from corn (Zea mays), soybean (Glycine max), velvetleaf (Abutilon theophrasti), lambsquarters (Chenopodium album), wild poinsettia (Euphorbia heterophylla), palmer pigweed (Amaranthus palmeri), waterhemp (common waterhemp, Amaranthus rudis), surinam grass (Brachiaria decumbens), large (Lg) crabgrass (Digitaria sanguinalis), Brazilian crabgrass (Digitaria horizontalis), fall panicum (Panicum dichotomiflorum), giant foxtail (Setaria faberii), green foxtail (Setaria viridis), goosegrass (Eleusine indica), johnsongrass (Sorghum halepense), ragweed (common ragweed, Ambrosia elatior), barnyardgrass (Echinochloa crus-galli), sandbur (southern sandbur, Cenchrus echinatus), arrowleaf sida (Sida rhombifolia), Italian ryegrass (Lolium multiflorum), dayflower (Virginia (VA) dayflower, Commelina virginica), field bindweed (Convolvulus arvensis), cocklebur (common cocklebur, Xanthium strumarium), momingglory (Ipomoea coccinea), nightshade (eastern black nightshade, Solanum ptycanthum), kochia (Kochia scoparia), yellow nutsedge (Cyperus esculentus), and hairy beggarticks (Bidens pilosa), were planted into a silt loam soil and treated preemergence with test chemicals formulated in a non-phytotoxic solvent mixture which included a surfactant.
(§2) At the same time, plants from these crop and weed species and also waterhemp_RES1, (ALS & Triazine resistant common waterhemp, Amaranthus rudis), and waterhemp_RES2, (ALS & HPPD resistant common waterhemp, Amaranthus rudis) were treated with postemergence applications of test chemicals formulated in the same manner. Plants ranged in height from 2 to 18 cm for postemergence treatments (1- to 4-leaf stage).
(§3) Treated plants and controls were maintained in a greenhouse for 14 to 21 days, after which time all species were compared to controls and visually evaluated. Plant response ratings, summarized in Table F, are based on a scale of 0 to 100 where 0 is no effect and 100 is complete control. A dash (-) response means no test result.

[2] = system: surinam grass (Brachiaria decumbens); settings: Urochloa decumbens, pre-emergence, scale 0 to 100, read-out: Plant response rating, Surinam Grass
Excerpt: as §1, §2, §3

[3] = system: nightshade (eastern black nightshade, Solanum ptycanthum); settings: Solanum, pre-emergence, scale 0 to 100, read-out: Plant response rating, Nightshade
Excerpt: as §1, §2, §3

[4] = system: Italian ryegrass (Lolium multiflorum); settings: Lolium multiflorum, pre-emergence, Preemergence, scale 0 to 100, read-out: Plant response rating, Ryegrass, Italian
Excerpt: as §1, §2, §3

kochia (Kochia scoparia) = settings: Bassia scoparia, pre-emergence, Preemergence, scale 0 to 100, read-out: Plant response rating, Kochia
Excerpt: as §1, §2, §3

[5] = system: goosegrass (Eleusine indica); settings: Eleusine indica, pre-emergence, scale 0 to 100, read-out: Plant response rating, Goosegrass
Excerpt: as §1, §2, §3

corn (Zea mays) = settings: Zea mays, pre-emergence, scale 0 to 100
Excerpt: as §1, §2, §3

[6] = system: palmer pigweed (Amaranthus palmeri); settings: Amaranthus palmeri, pre-emergence, scale 0 to 100, read-out: Plant response rating, Pigweed, Palmer
Excerpt: as §1, §2, §3

[7] = system: green foxtail (Setaria viridis); settings: Setaria viridis, pre-emergence, Preemergence, scale 0 to 100, read-out: Plant response rating, Foxtail, Green
Excerpt: as §1, §2, §3

soybean (Glycine max) = settings: Glycine max, pre-emergence, scale 0 to 100, read-out: Plant response rating, Soybean
Excerpt: as §1, §2, §3

[8] = system: wild poinsettia (Euphorbia heterophylla); settings: Euphorbia heterophylla, pre-emergence, scale 0 to 100, read-out: Plant response rating, Poinsettia, Wild
Excerpt: as §1, §2, §3

[9] = system: Brazilian crabgrass (Digitaria horizontalis); settings: Digitaria horizontalis, pre-emergence, scale 0 to 100, read-out: Plant response rating, Crabgrass, Brazil
Excerpt: as §1, §2, §3

[10] = system: arrowleaf sida (Sida rhombifolia); settings: Sida rhombifolia, pre-emergence, scale 0 to 100, read-out: Plant response rating, Arrowleaf Sida
Excerpt: as §1, §2, §3

[11] = system: fall panicum (Panicum dichotomiflorum); settings: Panicum dichotomiflorum, pre-emergence, scale 0 to 100, read-out: Plant response rating, Panicum, Fall
Excerpt: as §1, §2, §3

[12] = system: sandbur (southern sandbur, Cenchrus echinatus); settings: Cenchrus echinatus, pre-emergence, scale 0 to 100, read-out: Plant response rating, Sandbur
Excerpt: as §1, §2, §3

[13] = system: lambsquarters (Chenopodium album); settings: Chenopodium album, pre-emergence, Preemergence, scale 0 to 100, read-out: Plant response rating, Lambsquarters
Excerpt: as §1, §2, §3

SMILES: Fc1cccc(Oc2ncc(Cl)cn2)c1-c1cc(C(F)(F)F)on1 [Compound 168, 5-chloro-2-[2-[5-(trifluoromethyl)-3-isoxazolyl]-3-fluorophenoxy]pyrimidine]
- pest or weed control at 16 g/ha ([1]; 16 g ai/ha Preemergence): 65%
- pest or weed control at 31 g/ha ([1]; 31 g ai/ha Preemergence): 95%
- pest or weed control at 62 g/ha ([1]; 62 g ai/ha Preemergence): 98%
- pest or weed control at 125 g/ha ([1]; 125 g ai/ha Preemergence): 100%
- pest or weed control at 16 g/ha ([2]; 16 g ai/ha Preemergence): 50%
- pest or weed control at 31 g/ha ([2]; 31 g ai/ha Preemergence): 65%
- pest or weed control at 125 g/ha ([2]; 125 g ai/ha Preemergence): 100%
- pest or weed control at 62 g/ha ([2]; Preemergence): 70%
- pest or weed control at 16 g/ha ([3]; 16 g ai/ha Preemergence): 5%
- pest or weed control at 31 g/ha ([3]; 31 g ai/ha Preemergence): 98%
- pest or weed control at 125 g/ha ([3]; 125 g ai/ha Preemergence): 98%
- pest or weed control at 62 g/ha ([3]; Preemergence): 98%
- pest or weed control at 16 g/ha ([4]; 16 g ai/ha): 15%
- pest or weed control at 31 g/ha ([4]; 31 g ai/ha): 30%
- pest or weed control at 125 g/ha ([4]; 125 g ai/ha): 70%
- pest or weed control at 62 g/ha [4]: 65%
- pest or weed control at 16 g/ha (kochia (Kochia scoparia); 16 g ai/ha): 95%
- pest or weed control at 31 g/ha (kochia (Kochia scoparia); 31 g ai/ha): 100%
- pest or weed control at 125 g/ha (kochia (Kochia scoparia); 125 g ai/ha): 100%
- pest or weed control at 62 g/ha (kochia (Kochia scoparia)): 100%
- pest or weed control at 16 g/ha ([5]; 16 g ai/ha Preemergence): 80%
- pest or weed control at 31 g/ha ([5]; 31 g ai/ha Preemergence): 95%
- pest or weed control at 125 g/ha ([5]; 125 g ai/ha Preemergence): 100%
- pest or weed control at 62 g/ha ([5]; Preemergence): 98%
- Corn plant response rating (crop injury, 0 = no effect, 100 = complete kill) at 16 g/ha (corn (Zea mays); 16 g ai/ha Preemergence): 0%
- Corn plant response rating (crop injury, 0 = no effect, 100 = complete kill) at 31 g/ha (corn (Zea mays); 31 g ai/ha Preemergence): 0%
- Corn plant response rating (crop injury, 0 = no effect, 100 = complete kill) at 62 g/ha (corn (Zea mays); 62 g ai/ha Preemergence): 40%
- Corn plant response rating (crop injury, 0 = no effect, 100 = complete kill) at 125 g/ha (corn (Zea mays); 125 g ai/ha Preemergence): 35%
- pest or weed control at 16 g/ha ([6]; 16 g ai/ha Preemergence): 98%
- pest or weed control at 31 g/ha ([6]; 31 g ai/ha Preemergence): 100%
- pest or weed control at 125 g/ha ([6]; 125 g ai/ha Preemergence): 100%
- pest or weed control at 62 g/ha ([6]; Preemergence): 100%
- pest or weed control at 16 g/ha ([7]; 16 g ai/ha): 70%
- pest or weed control at 31 g/ha ([7]; 31 g ai/ha): 100%
- pest or weed control at 125 g/ha ([7]; 125 g ai/ha): 100%
- pest or weed control at 62 g/ha [7]: 100%
- plant injury at 16 g/ha (soybean (Glycine max); 16 g ai/ha Preemergence): 0%
- plant injury at 31 g/ha (soybean (Glycine max); 31 g ai/ha Preemergence): 0%
- plant injury at 125 g/ha (soybean (Glycine max); 125 g ai/ha Preemergence): 40%
- plant injury at 62 g/ha (soybean (Glycine max); Preemergence): 20%
- pest or weed control at 16 g/ha ([8]; 16 g ai/ha Preemergence): 0%
- pest or weed control at 31 g/ha ([8]; 31 g ai/ha Preemergence): 0%
- pest or weed control at 125 g/ha ([8]; 125 g ai/ha Preemergence): 90%
- pest or weed control at 62 g/ha ([8]; Preemergence): 50%
- pest or weed control at 16 g/ha ([9]; 16 g ai/ha Preemergence): 65%
- pest or weed control at 31 g/ha ([9]; 31 g ai/ha Preemergence): 100%
- pest or weed control at 62 g/ha ([9]; 62 g ai/ha Preemergence): 100%
- pest or weed control at 125 g/ha ([9]; 125 g ai/ha Preemergence): 100%
- pest or weed control at 16 g/ha ([10]; 16 g ai/ha Preemergence): 95%
- pest or weed control at 31 g/ha ([10]; 31 g ai/ha Preemergence): 100%
- pest or weed control at 62 g/ha ([10]; 62 g ai/ha Preemergence): 100%
- pest or weed control at 125 g/ha ([10]; 125 g ai/ha Preemergence): 100%
- pest or weed control at 16 g/ha ([11]; 16 g ai/ha Preemergence): 35%
- pest or weed control at 31 g/ha ([11]; 31 g ai/ha Preemergence): 95%
- pest or weed control at 125 g/ha ([11]; 125 g ai/ha Preemergence): 100%
- pest or weed control at 62 g/ha ([11]; Preemergence): 100%
- pest or weed control at 16 g/ha ([12]; 16 g ai/ha Preemergence): 10%
- pest or weed control at 31 g/ha ([12]; 31 g ai/ha Preemergence): 30%
- pest or weed control at 125 g/ha ([12]; 125 g ai/ha Preemergence): 90%
- pest or weed control at 62 g/ha ([12]; Preemergence): 65%
- pest or weed control at 16 g/ha ([13]; 16 g ai/ha): 100%
- pest or weed control at 31 g/ha ([13]; 31 g ai/ha): 100%
- pest or weed control at 125 g/ha ([13]; 125 g ai/ha): 100%
- pest or weed control at 62 g/ha [13]: 100%
